Reference: patent publication US20200405699A1, “TREATING SICKLE CELL DISEASE WITH A PYRUVATE KINASE R ACTIVATING COMPOUND” (FORMA Therapeutics, Inc., priority 2018, published 2020)

Assays:
PKR-R510Q = PKR-R510Q (Homo sapiens, UniProt P30613, R510Q); experiment: Luminescence Assay (Kinase Glo Plus), PKR R510Q; assay type: biochemical; details: read-out: AC50 (PKRR510Q)
Method: (§1) For each tested compound, the ability to activate PKR was determined using the following Luminescence Assay. The effect of phosphorylation of adenosine-5′-diphosphate (ADP) by PKR is determined by the Kinase Glo Plus Assay (Promega) in the presence or absence of FBP (D-fructose-1,6-diphosphate; BOC Sciences, CAS: 81028-91-3) as follows. Unless otherwise indicated, all reagents are purchased from Sigma-Aldrich. All reagents are prepared in buffer containing 50 mM Tris-HCl, 100 mM KCl, 5 mM MgCl2, and 0.01% Triton X100, 0.03% BSA, and 1 mM DTT. Enzyme and PEP (phosphoenolpyruvate) are added at 2× to all wells of an assay-ready plate containing serial dilutions of test compounds or DMSO vehicle. Final enzyme concentrations for PKR(wt), PKR(R510Q), and PKR(G332S) are 0.8 nM, 0.8 nM, and 10 nM respectively. Final PEP concentration is 100 μM. The Enzyme/PEP mixture is incubated with compounds for 30 minutes at RT before the assay is initiated with the addition of 2×ADP and KinaseGloPlus. Final concentration of ADP is 100 μM. […] For assays containing FBP, that reagent is added at 30 μM upon reaction initiation. Reactions are allowed to progress for 45 minutes at RT until luminescence is recorded by the BMG PHERAstar FS Multilabel Reader. The compound is tested in triplicate at concentrations ranging from 42.5 μM to 2.2 nM in 0.83% DMSO. AC50 measurements were obtained by the standard four parameter fit algorithm of ActivityBase XE Runner (max, min, slope and AC50). The AC50 value for a compound is the concentration (μM) at which the activity along the four parameter logistic curve fit is halfway between minimum and maximum activity.
(§2) As set forth in Tables 2 and 3 below and in FIG. 1, AC50 values are defined as follows: ≤0.1 μM (+++); >0.1 μM and ≤1.0 μM (++); >1.0 μM and ≤40 μM (+); >40 μM (0).

PKR(G332S) = PKR(G332S) (Homo sapiens, UniProt P30613, G332S); experiment: Luminescence Assay (Kinase Glo Plus), PKR G332S; assay type: biochemical; details: read-out: AC50 (PKRG332S)
Chain of PKR(G332S) (P30613 whole entry G332S): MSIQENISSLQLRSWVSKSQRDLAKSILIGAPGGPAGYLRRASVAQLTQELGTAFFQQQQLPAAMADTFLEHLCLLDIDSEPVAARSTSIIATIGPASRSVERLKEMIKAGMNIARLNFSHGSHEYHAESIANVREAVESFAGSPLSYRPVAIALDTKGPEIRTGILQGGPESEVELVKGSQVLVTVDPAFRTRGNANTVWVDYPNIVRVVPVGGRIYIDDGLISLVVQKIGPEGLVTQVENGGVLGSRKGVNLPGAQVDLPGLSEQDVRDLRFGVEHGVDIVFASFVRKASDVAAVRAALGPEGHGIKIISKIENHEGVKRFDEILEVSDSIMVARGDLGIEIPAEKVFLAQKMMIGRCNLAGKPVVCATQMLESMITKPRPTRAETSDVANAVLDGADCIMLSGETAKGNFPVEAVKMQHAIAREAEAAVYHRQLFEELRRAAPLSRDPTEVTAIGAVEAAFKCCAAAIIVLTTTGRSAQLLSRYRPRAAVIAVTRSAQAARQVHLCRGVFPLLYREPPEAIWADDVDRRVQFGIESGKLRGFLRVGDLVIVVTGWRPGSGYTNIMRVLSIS
Method: as §1, §2

Chain of PKR-R510Q (P30613 whole entry R510Q): as the sequence (P30613 whole entry G332S) above, with S332G, R510Q counted along it

| AC50 (PKR-R510Q) [µM] | AC50 (PKR(G332S)) [µM] | SMILES |
| --- | --- | --- |
| 1 to 40 | 0.1 to 1 | O=C([C@H](O)c1cccnc1)N1CC2=C(C1)CN(S(=O)(=O)c1cnc3c(c1)OCCO3)C2 [Compound 6] |
| > 40 | > 40 | O=C([C@H](CO)c1ccccc1)N1CC2=C(C1)CN(C(=O)[C@H](CO)c1ccccc1)C2 [Compound 7] |
| > 40 | > 40 | O=C(c1cn[nH]c1-c1ccccc1)N1CC2=C(C1)CN(S(=O)(=O)c1ccc3c(c1)OCCO3)C2 [Compound 8] |
